From US10813920B2, “Drug for treating corneal endothelium by promoting cell proliferation or inhibiting cell damage” (THE DOSHISHA, priority 2013, dated 2020)

What was measured:
[1] = test system: human corneal endothelial cells; assay: BrdU uptake ELISA in cultured human corneal endothelial cells (Example 2); assay type: cell-based; conditions: ELISA after 3 days; 1, 3, 10, 30 μM; relative to control
Description: *The amount of IL-6 expression of human corneal endothelial cells was quantified by RT-PCR by the following method. Human corneal endothelial cells (n=3, passage 5) were cultured for 20 days in the presence of 10 μM of SB203580, and then RNA was extracted with RneasyMini (QIAGEN). 277 ng of total RNA was reverse-transcribed with RevertraAce (Toyobo) and cDNA synthesized into a template to perform PCR. 10 μl of PCR solution containing 1 μl of reaction mixture from single strand cDNA synthesis was heated for 1 minute at an initial temperature of 94° C. and then 1 minute at 94° C., 30 seconds at 54° C., and 30 seconds at 72° C. The temperature cycle was repeated 30 times. IL-6 sense primer: […] (SEQ ID NO: 1) IL-6 antisense primer: […] (SEQ ID NO: 2) *ELISA (BrdU): Cells were seeded on a 96-well culture plate at a seeding density of 5000 cells/well. […] The reaction was stopped with 1M sulfuric acid to measure the absorbance at 450 nm with a plate reader. […] The amount of IL-6 protein in a culture supernatant collected after 7 days was quantified in accordance with the manual of DuoSetELISA human IL-6 (R & D Cat # DY206). […] The plate was washed and the bound peroxidase was detected with a substrate solution (R&D Systems Cat # DY999). The coloring reaction was stopped with 2M of H2SO4 to read out the plate with Multimax (Promega) at […]. […]

[2] = test system: human corneal endothelial cells; assay: IL-6 production by RT-PCR and ELISA; assay type: cell-based; conditions: 10 μM, cultured for 20 days
Description: *PCR: PCR was carried out on each laminin chain and integrin chain by RT-PCR (reverse transcription polymerase chain reaction). A primer was purchased from the oligonucleotide synthesis company INVITROGEN and then desalinized for use. RNEasy Mini Kit (QIAGEN, catalog number: 74106) was used for extracting the entire RNA from cells. The Descemet's membrane including corneal endothelial cells were peeled off from a cornea for research purchased from the Seattle Eye Bank and the corneal endothelial cells were mechanically peeled off with the basal membrane for use in RNA extraction from the corneal endothelial cells. […]
Electrophoresis is applied to an amplified DNA fragment with 1.5% agarose gel (Nacalai Tesque, catalog number: 01149-76) and the fragment was detected by staining with ethidium bromide (Nacalai Tesque, catalog number: 14603-51).
*The amount of IL-6 expression of human corneal endothelial cells was quantified by RT-PCR by the following method. […] The reaction was stopped with 1M sulfuric acid to measure the absorbance at 450 nm with a plate reader. […] The amount of IL-6 protein in a culture supernatant collected after 7 days was quantified in accordance with the manual of DuoSetELISA human IL-6 (R & D Cat # DY206). […]

C[S+]([O-])c1ccc(-c2nc(-c3ccncc3)c(-c3ccc(F)cc3)[nH]2)cc1 (stereo not drawn) [SB203580, 4-(4-fluorophenyl)-2-(4-methylsulfinylphenyl)-5-(4-pyridyl)-1H-imidazole]
BrdU uptake [1]: significantly promoted
IL-6 production (PCR) ([2]; RT-PCR): decreases relative to the control
IL-6 production (ELISA) ([2]; supernatant collected after 7 days): decreases relative to the control
